For one test, the system named is LDL receptor. Description: RT-PCR quantification of LDL receptor mRNA expression in 3T3-L1 neo-adipocytes. The class given is cell-based. The note with it: 24 hours. The source says:
(§1) To evidence regulation of transcription (control of the number of copies of the messenger RNA for the gene coding for the protein studied), it was necessary to isolate the messenger RNA (mRNA) synthesized from the cell culture. The mRNA specific for the protein of interest must be recognized in the total mRNA pool present in the cell.
(§2) The used method is RT-PCR, of amplification and quantization, conducted in real time on the latest-generation systems and which enables in-line quantitative measurement of the target mRNA.
(§3) Neo-adipocytes 3T3-L1 in the adipocytic differentiation phase (after addition of an appropriate triggering cocktail) were incubated with cafestol acetate for 24 hours.
(§4) At the end of the test, the adipocytes were lysed and the extracted mRNA transcribed to cDNA (by reverse transcriptase). The cDNA were then amplified (n copies using Taq polymerase) to obtain a detectable signal.
(§5) The amplicons (cDNA amplification products) were quantified directly, as they emerged in the RT-PCR system, then subjected to electrophoresis in order to visually illustrate the results.

A further test relates to VLDL receptor. The test can be described thus: RT-PCR quantification of VLDL receptor mRNA expression in 3T3-L1 neo-adipocytes. It is filed as cell-based.
From the text: as §1, §2, §3, §4, §5

This is an account of results in patent publication US20070043109A1, “Slimming cosmetic composition” (Sederma Sas, priority 2003, published 2007).

As for `CC(=O)OC[C@@]1(O)C[C@@]23CC[C@@H]4c5ccoc5CC[C@@]4(C)[C@@H]2CC[C@@H]1C3` [Cafestol Acetate, cafestol acetate], the “Change in LDL receptor mRNA expression relative to control” value with LDL receptor (equivalent to that of the positive control) is recorded as −33%. Further, the “mRNA expression LDL receptor, standardized on internal standard β-actin, percentage relative to the control” value with LDL receptor (cafestol acetate 15 ppm, 3T3-L1 neo-adipocytes in differentiation phase, mean of n = 3 tests, control = 100) was 66%. Besides, the “mRNA expression VLDL receptor, standardized on internal standard β-actin, percentage relative to the control” value in the test with VLDL receptor (cafestol acetate 15 ppm, 24 hours, 3T3-L1 neo-adipocytes in differentiation phase, mean of n = 3 tests, control = 100) was 90%. The “Reduction of the VLDLr (mRNA expression)” value in the test on VLDL receptor (in 24 hours) amounted to 10%.
